Patent publication US20200253888A1, “USE OF BIOMARKERS ASSOCIATED WITH LINE-1” (THE ARIZONA BOARD OF REGENTS ON BEHALF OF THE UNIVERSITY OF …, priority 2016, published 2020)

Assays:
L1 mRNA (ORF1 and ORF2) = experiment: B[a]P-induced L1 mRNA expression after siRNA transfection in HepG2 cells (qRT-PCR); assay type: cell-based, human
Method: FIG. 5 is experimental results showing B[a]P-mediated L1 mRNA expression requires TGFR1, Smad2 and smad3 in HepG2 cells. Cells were transfected without siRNA (mock), with target-specific siRNAs for Smad2, Smad3, TGFBR1, or with a control siRNA (scramble), then treated with 1.5 μM B[a]P or DMSO for 48 h. Total RNA was isolated, and 1 μg of RNA was subjected to cDNA synthesis. Samples were analyzed via RT-PCR using human specific primers for L1 (ORF1 and ORF2) and GAPDH. C) Some transfected cells were lysed and the whole cell lysates was analyzed by immunoblotting for TGFBR1, Smad2/3 or GAPDH antibodies (loading control) to confirm target knockdown.
RT-PCR: Total RNA was isolated from cells using the RNeasy Plus Kit (Qiagen) and 2 μg RNA was digested with TurboDNase-I (Thermo Fisher Scientific). A total DNAse digested RNA (1 μg) was employed for cDNA synthesis using high-capacity cDNA reverse transcription Kit (Thermo Fisher Scientific). The resulting cDNAs (50 ng) were used as templates for qRT-PCR to analyze the mRNA expression using Power SYBR® Green PCR Master Mix and primers for L1-ORF-1, L1-ORF-2, TGF-β1 and GAPDH. The fold changes were determined by comparing the ACT value of each product normalized to GAPDH as an internal control.
(§1) RNA interference: Small interfering RNA (siRNA) duplexes sequences were chemically synthesized and annealed by Thermo Fisher Scientific. […]

[1] = system: L1 mRNAs (ORF-1 and ORF-2); experiment: TGF-β1-induced L1 mRNA expression in HepG2 cells (qRT-PCR); assay type: cell-based, human
Method: FIG. 1 is experimental results showing TGF-β1 induces the L1 mRNA expression in HepG2 cells. HepG2 were stimulated for different times by adding serum-free media with or without (untreated) 10 ng/ml TGF-β1. Total RNA was isolated, and 1 μg of RNA was subjected to cDNA synthesis. Samples were analyzed via RT-PCR using specific primers for human L1 (ORF-1 and ORF-2) and GAPDH. Expression relative to untreated cells.
(§2) Cell culture and treatments: HepG2 hepatocellular carcinoma cell line was purchased from the American Type Culture Collection (ATCC). Cells were grown in RPMI medium supplemented with 10% fetal bovine serum (FBS, Thermo Fisher Scientific, Grand Island, N.Y.) supplemented with 62.5 μg/mL penicillin and 100 μg/mL streptomycin (Thermo Fisher Scientific) in a humidified incubator at 37° C. with 5% CO2. HepG2 cells were pleated on day before treatment. Cells were between 40-50% confluent at the treatment time. […] All protein concentrations were determined using the bicinchoninic acid assay (Thermo Fisher Scientific).
RT-PCR: Total RNA was isolated from cells using the RNeasy Plus Kit (Qiagen) and 2 μg RNA was digested with TurboDNase-I (Thermo Fisher Scientific). […] The fold changes were determined by comparing the ACT value of each product normalized to GAPDH as an internal control. […]

[2] = system: L1 proteins (ORF1p and ORF2p); experiment: TGF-β1-mediated L1 expression in BEAS-2B lung cells with or without juglone (immunoblotting); assay type: cell-based; settings: BEAS-2B cells, 10 ng/ml TGF-β1, immunoblotting
Method: In the experiments, non-malignant BEAS-2B lung cells were untreated or treated with 10 ng/ml TGF-β1 and co-treated with 1 μM juglone or ethanol and whole lyses were analyzed by immunoblotting for L1 proteins (ORF1p and ORF2p), vimentin, DNMT1 and GAPDH (loading control).

L1 = settings: HeLa, HMEM, vSMC and mK4 cell lines; previously shown (ref. 33); cited from earlier work
[3] = system: phospho-Smad2, E-Cadherin, N-Cadherin, vimentin; experiment: Activation of the TGF-β1 signaling pathway by B[a]P in HepG2 cells (immunoblotting); assay type: cell-based, human; settings: data not shown
Method: FIG. 4 is experimental results showing B[a]P induces the activation of the TGF-β1 signaling pathway in HepG2 cells. Cells were stimulated for different periods of times by replacing cell media for supplemented fresh media containing 1.5 μM B[a]P or an equivalent DMSO concentration (0.5%). Whole cell lysates were analyzed by immunoblotting for phospho-Smad2, total Smad2, E-Cadherin, N-Cadherin, and GAPDH (loading control).
as §2
Immunoblotting: Total cell lysates were resolved by SDS-Tris PAGE and then electrotransferred onto polyvinylidine fluoride membranes (Thermo Fisher Scientific) in Tris-glycine buffer containing 20% methanol. Proteins were detected by immunoblotting. […]

AhR = AhR knockdown by siRNA in HepG2 cells (immunoblot); assay type: cell-based, human; settings: HepG2, siRNA transfection
Method: FIG. 3 is experimental results showing B[a]P induces the TG-β1 mRNA expression through of its receptor AhR in HepG2 cells. A) Cell were treated with 1.5 μM B[a]P or an equivalent DMSO concentration (0.5%) for different periods of times. B) Cells were transfected without siRNA (mock), with AhR target-specific siRNAs, or with a control siRNA (scramble), then treated with 1.5 μM B[a]P or DMSO for 48 h. Total RNA was isolated, and 1 μg of RNA was subjected to cDNA synthesis. Samples were analyzed via RT-PCR using human specific primers for TGF-μ1 and GAPDH. C) Some transfected cells were lysed and the whole cell lysates was analyzed by immunoblotting for AhR or GAPDH antibodies (loading control) to confirm target knockdown.
Immunoblotting: Total cell lysates were resolved by SDS-Tris PAGE and then electrotransferred onto polyvinylidine fluoride membranes (Thermo Fisher Scientific) in Tris-glycine buffer containing 20% methanol. Proteins were detected by immunoblotting. Where indicated, membranes were stripped of bound antibodies using 62.5 mmol/L Tris-HCl (pH 6.7), 100 mmol/L 2-mercaptoethanol, and 2% SDS for 30 minutes at 60° C. and then reprobed as described in figure legends.
as §1

Smad2 siRNA: siRNA duplex for Smad2 (ID#115715), SEQ ID NO: 13 and 14 (chain 1 GCUUCUCUGAACAAACCAGTT; chain 2 CUGGUUUGUUCAGAGAAGCTG; chemistry not given here)
baseline L1 mRNA expression after knockdown (L1 mRNA (ORF1 and ORF2)): slight reduction

TGF-β1: Recombinant human TGF-β1 purchased from R&D Systems
time of maximal peak induction of L1 mRNAs ([1]; HepG2, 10 ng/ml TGF-β1, time course 4 h-24 h): 8 h
expression levels of L-1 mRNAs (ORF-1 and ORF-2) ([1]; HepG2, 10 ng/ml TGF-β1 in serum-free media, after 8 h to 24 h treatment, relative to untreated cells): induced an evident increase
expression of L1 [2]: induces the expression of L1

c1ccc2c(c1)cc1ccc3cccc4ccc2c1c34 [B[a]P, Benzo[a]pyrene]
transcriptional expression of L1 (L1): reactivates transcriptional expression of L1
expression of vimentin [3]: not induced

Smad3 siRNA: siRNA duplex for Smad3 (ID#107877), SEQ ID NO: 15 and 16 (chain 1 GGCCCAGUGCAUAUGCAAUTT; chain 2 AUUGCAUAUGCACUGGGCCTC; chemistry not given here)
baseline L1 mRNA expression after knockdown (L1 mRNA (ORF1 and ORF2)): slight reduction

AhR siRNA: siRNA duplex for AhR (ID#s1200), SEQ ID NO: 9 and 10 (chain 1 CGGAUGAAAUCCUGACGUATT; chain 2 UACGUCAGGAUUUCAUCAGTT; chemistry not given here)
reduction in AhR levels compared with controls (AhR): > 90%
